According to PubChem BioAssay (NCI):
Values joined by “and” are separate entries in the source; they are usually repeats but may differ in a detail not shown here. Equal entries are not always repeated.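 Growth conditions: 96-well plates. Treatment: test compound, 48 hours, 5 concentrations. Analysis: linear interpolation between bracketing concentrations; unreached endpoints set to highest concentration. Here, GI50 denotes the concentration required for 50% inhibition of growth. At the TGI there is no net growth.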

Assays:
Assay in all cases: DTP human tumour cell line panel, 48 h
[1] = system: CAKI-1 renal
[2] = system: EKVX NSCLC
[3] = system: HCC-2998 colon
[4] = system: LOX IMVI melanoma
[5] = system: OVCAR-8 ovarian
[6] = system: SF-539 CNS
[7] = system: SK-MEL-28 melanoma
[8] = system: TK-10 renal
[9] = system: UO-31 renal
[10] = system: RXF 393 renal

| SMILES | TGI [1] [µM] | TGI [2] [µM] | TGI [3] [µM] | TGI [4] | TGI [5] [µM] | TGI [6] [µM] | TGI [7] [µM] | TGI [8] [µM] | TGI [9] [µM] | TGI [10] [µM] | GI50 [1] [µM] | GI50 [3] [µM] | GI50 [4] | GI50 [5] | GI50 [6] [µM] | GI50 [7] [µM] | GI50 [9] [µM] |
| --- | --- | --- | --- | --- | --- | --- | --- | --- | --- | --- | --- | --- | --- | --- | --- | --- | --- |
| COc1ccc2c(c1)CCc1c-2n[nH]c1-c1[nH]nc2c1CCc1cc(OC)ccc1-2 | 92.7 | > 100 | > 100 | > 100 µM | > 100 | 63.2 | > 100 | > 100 | > 100 |  |  |  |  |  |  |  |  |
| C[C@]12C[C@H](O)[C@H]3[C@@H](CCC4=CC(=O)CC[C@@]43C)[C@@H]1CC[C@@H]2c1csc(-c2ccccc2)n1 | > 100 | > 100 |  | > 100 µM | > 100 | > 100 | > 100 | > 100 | > 46.2 | > 100 |  |  |  |  |  |  |  |
| COC(=O)[C@H](Cc1cn(C)cn1)NC(=O)[C@H](Cc1ccccc1)NC(=O)Nc1cc(C(F)(F)F)cc(C(F)(F)F)c1 | 31.7 |  |  | 9.27 µM and 20.6 µM | 22.7 | 33 | 35.2 |  | 30.5 |  | 17.1 | 3.86 | 2.5 µM and 7.46 µM | 8.26 µM and 9.71 µM | 17.2 | 17.9 | 16.6 |
| COCCNc1cncc(C(N)=O)c1 | > 100 | > 100 | > 100 |  | > 100 | > 100 | > 100 | > 100 | > 100 |  |  |  |  |  |  |  |  |
| O=c1/c(=N\Nc2ccccc2)c2cccc3ccc4cccc1c4c32 | > 100 | > 100 |  | > 100 µM | > 100 |  | > 100 | > 100 | > 100 | > 100 |  |  |  |  |  |  |  |
| COc1ccc([C@@H]2OC(=O)C3C2C(=O)O[C@H]3c2ccc(OC)c(OC)c2)cc1OC (stereo partly drawn) |  | > 100 | > 100 | > 100 µM | > 100 | > 100 | > 100 | > 100 | > 100 | > 100 |  |  |  |  |  |  |  |
| COc1ccc2c(c1)CN1CCc3c(cc(OC)c(OC)c3OC)C1C2 (stereo not drawn) | > 100 | > 100 | > 100 |  | > 100 | > 100 | > 100 | > 100 | > 100 | > 100 |  |  |  |  |  |  |  |
| CN(N)c1nc(N)c(C#N)c(C#N)c1C#N | > 10 |  | > 10 | > 10 µM | > 10 | > 10 | > 10 | > 10 |  |  |  |  |  |  |  |  |  |
| C/C=C(\C)C(=O)OC1/C=C(\C)CC/C=C(\C)CC2OC(=O)C(C)(OC(C)=O)C12 (stereo not drawn) | > 100 | > 100 | > 100 | > 100 µM | > 100 | > 100 | > 100 | > 100 |  | > 100 |  |  |  |  |  |  |  |
| CC1=CCCC2C(C=O)(C1)CC(C)C2(CO)CC/C(=C/CO)CO (stereo not drawn) | > 100 | > 100 | > 100 | > 100 µM | > 100 |  | > 100 | > 100 | 82.8 | > 100 |  |  |  |  |  |  |  |
| CCC(CO)Nc1nc2c(c(=O)n(C)c(=O)n2C)n1CCO (stereo not drawn) |  | > 100 | > 100 |  | > 100 | > 100 | > 100 | > 100 | > 100 | > 100 |  |  |  |  |  |  |  |
